Measurements taken from patent publication US10111854B2, “Synthesis and use of amine-containing flavonoids as potent anti-leishmanial agents” (The Hong Kong Polytechnic University, priority 2014, dated 2018).

Legend:
[1] = test system: L. amazonensis LV78 promastigotes; assay: Anti-promastigote activity (MTS assay), L. amazonensis LV78; format: cell-based; conditions: Leishmania amazonensis, 72 hours
Procedure: (§1) Promastigotes of visceral L. donovani Ld39 and LdHU3, and cutaneous L. amazonensis LV78, L. braziliensis UA847 and L. major FV1 were employed in the study. All strains were cultured in Schneider's Drosophila Medium (Invitrogen), pH 6.9 supplemented with 10% (v/v) heat inactivated fetal bovine serum (Hyclone) with 4 mM glutamine (Sigma) and 25 μg/mL gentamicin solution (Invitrogen) at 27° C. for 4 days. RAW264.7 cells were cultured in supplemented DMEM media with 10% heat inactivated FBS and 100 U/mL penicillin and 100 μg/mL of streptomycin. They were maintained at 37° C. in a humidified atmosphere with 5% CO2. The cells were split constantly after a confluent monolayer has been formed. The cells were harvested by a cell scraper.
(§2) Anti-promastigote activity was determined according to previous procedures (1) by Cell Titer 96® Aqueous Assay (Promega) that employed a tetrazolium compound. Promastigotes were seeded into 96-well flat bottom microtiter plate at 1×10^5 cells per well in a final volume of 100 μL medium and incubated with a series of concentrations of synthetic FM. Parasites were incubated at 27° C. for 72 hours. After 72 hours of incubation, 10 μL of MTS:PMS mixture [MTS:2-(4,5-Dimethylthiazol-2-yl-)-5-[3-(carboxymethoxy)phenyl]-2-(4-sulfophenyl)-2H-tetrazolium); PMS: phenazine methosulfate both purchased from Sigma] was added into each well of microtiter plate. The plate was then incubated at 27° C. for 4 hours for color development. After 4 hours of incubation, the OD values were determined at 490 nm using automatic microtiter plate reader (Bio-Rad).
(§3) IC50 values of known antileishmanials and the amine-containing flavonoid monomers of the present invention to promastigotes (L. amazonensis LV78, L major FV1, L. donovani HU3, L. donovani 39), macrophages (Raw 264.7 and PEM) and mouse fibroblast (L929) were determined. The anti-promastigotes activities and cytotoxicity of the amine-containing flavonoid monomers of the invention are shown in Table 1.

[2] = test system: L. donovani HU3 promastigotes; assay: Anti-promastigote activity (MTS assay), L. donovani HU3; format: cell-based; conditions: Leishmania donovani, 72 hours
Procedure: as §1, §2, §3

[3] = Cytotoxicity, L929 fibroblasts; format: cell-based, mouse; conditions: mouse
Procedure: as §3

[4] = Cytotoxicity, peritoneal elicited macrophages (PEM); format: cell-based, mouse; conditions: mouse, Cytotoxicity IC50, PEM
Procedure: (§4) Mouse peritoneal elicited macrophages (PEM) were obtained as previously described (2). A round cover slip (12 mm in diameter) was placed into each well of 24-well culture plate. Mouse PEM were resuspended in supplemented DMEM media containing 10% heat inactivated FBS (v/v), 100 U/mL penicillin and 100 μg/mL streptomycin and seeded into each well at a cell density of 1×10^5 cells per 500 μL. Macrophages were allowed to attach overnight. Non-adherent cells were removed by gentle washing with un-supplemented DMEM media twice. Adherent macrophages were infected with late-log promastigotes at a parasite-to-macrophage ratio of 20:1 overnight at 37° C. with 5% CO2. Non-internalized promastigotes were removed by washing twice with un-supplemented DMEM media. Infected macrophages were further incubated in 500 μL of supplemented DMEM media in the presence or absence of FM for 72 hours at 37° C. After incubation, cover slips were stained with Giemsa and the percentage of macrophages infected and number of amastigotes per 100 macrophages was enumerated.
as §3

[5] = test system: L. major FV1 promastigotes; assay: Anti-promastigote activity (MTS assay), L. major FV1; format: cell-based; conditions: Leishmania major, 72 hours
Procedure: as §1, §2, §3

[6] = test system: L. donovani Ld39 promastigotes; assay: Anti-promastigote activity (MTS assay), L. donovani Ld39; format: cell-based; conditions: Leishmania donovani, 72 hours
Procedure: as §1, §2, §3

[7] = test system: L. amazonensis LV78 amastigotes; assay: Anti-amastigote activity in infected PEM, L. amazonensis LV78; format: cell-based; conditions: Leishmania amazonensis, 72 h; infected PEM, 3 days, Giemsa
Procedure: as §4
(§5) PEM cells were infected with late-log promastigotes (L. amazonensis LV78, L. braziliensis UA847, L. donovani HU3, L. donovani 39) for 24 hr at 37° C. Infected macrophages were then treated with various antileishmanials and incubated for 3 days at 37° C. After 3 days, the cover slips were stained with Giemsa. The number of amastigotes per 100 macrophages were determined and used to calculate IC50 values.

[8] = test system: L. donovani Ld39 amastigotes (SSG-resistant); assay: Anti-amastigote activity in infected PEM, L. donovani Ld39; format: cell-based; conditions: for IC50: Leishmania donovani, 72 h, infected PEM, 3 days, Giemsa, SSG-resistant; for Selective index (a)/(c): IC50 RAW264.7 over IC50 L. donovani Ld39 amastigotes
Procedure: as §4, §5

[9] = test system: L. donovani HU3 amastigotes; assay: Anti-amastigote activity in infected PEM, L. donovani HU3; format: cell-based; conditions: Leishmania donovani, 72 h; infected PEM, 3 days, Giemsa; SSG-sensitive
Procedure: as §4, §5

RAW264.7 cells = assay: Reactive oxygen species (ROS) level, DCFDA, RAW264.7; format: cell-based, murine
Procedure: (§6) 50,000 RAW264.7 were seeded in each well of black 96-well plates overnight. Next day, RAW264.7 cells were pre-loaded with 10 μM dichlorofluorescein diacetate (DCFDA) (Abcam) for 1 hr at 37° C. with 5% CO2. A control of non-DCFDA stained cells was also included. The DCFDA-contained supplemented DMEM media was removed. The cells were re-suspended with 10 μM or 30 μM of respective tested compounds and positive control, tert-butyl hydroperoxide. In Leishmania, 1×10^7 promastigotes were also pre-loaded with 10 μM DCFDA at 27° C. for 1 hr. After removing the DCFDA-contained media, the promastigotes were seeded into black 96-well plate and incubated with 30 μM of respective compounds or positive control. The ROS level was determined at different periods of time including 2, 4, 6, 8, 20, 46 and 72 hr using microplate reader (excitation: 485 nm and emission: […]).
(§7) The ROS levels in both macrophage RAW264.7 and L. amazonensis promastigotes was measured by dichlorofluorescein diacetate (DCFDA) dye which is permeable to the cells. With oxidative stress, DCFDA would be oxidized to fluorescent DCF which is an indicator of intracellular ROS level. RAW cells or L. amazonensis promastigotes were pre-loaded with 10 μM of DCFDA for 1 hr, washed and exposed to 39, FM09, pentamidine and amphotericin B for different period of time (2, 4, 6, 8, 20, 46 and 72 hr). The fluorescence level was measured at the 520 nm using 485 nm as an excitation wavelength. 0.1% DMSO or 0.3% DMSO was used as a solvent control. The fluorescent value has been subtracted from non-DCFDA stained cells. The values were presented as mean±standard error of mean.

[10] = test system: L. amazonensis LV78 promastigotes; assay: Reactive oxygen species (ROS) level, DCFDA, promastigotes; format: cell-based; conditions: 30 μM
Procedure: as §6, §7

## O=c1cc(-c2ccc(OCCOCCNC(c3ccccn3)c3ccccn3)cc2)oc2ccccc12 [FM09p, 2-(4-(2-(2-((di(pyridin-2-yl)methyl)amino)ethoxy)ethoxy)phenyl)-4H-chromen-4-one]
[1]
  IC50: 2.8 µM
[2]
  IC50: 2.4 µM
[3]
  IC50: 2.1 µM
[4]
  IC50: 12.5 µM

## O=C(COc1ccc(-c2cc(=O)c3ccccc3o2)cc1)N1CCNCC1 [FM10, 2-(4-(2-oxo-2-(piperazin-1-yl)ethoxy)phenyl)-4H-chromen-4-one]
[1]
  IC50: 31.4 ± 2.4 µM
[5]
  IC50: 78.5 ± 11.3 µM
[2]
  IC50: 37.6 ± 2.8 µM
[6]
  IC50: 49.5 ± 8 µM
[3]
  IC50: > 33 µM
[7]
  IC50: 6 ± 0.2 µM
[8]
  IC50: > 10 µM

## O=c1cc(-c2ccc(OCCC3CCN(Cc4ccccn4)CC3)cc2)oc2ccccc12 [FM05a, 2-(4-(2-(1-(pyridin-2-ylmethyl)piperidin-4-yl)ethoxy)phenyl)-4H-chromen-4-one]
[1]
  IC50: 2.97 ± 0.91 µM
[2]
  IC50: 7.43 ± 2.15 µM
[3]
  IC50: 58.9 ± 23.3 µM
[4]
  IC50: 17.6 µM
[7]
  IC50: 3.57 ± 1.73 µM
[9]
  IC50: 5.2 ± 1.68 µM

## O=c1cc(-c2ccc(OCCOCCNCc3ccccn3)cc2)oc2ccccc12 [FM09m, 2-(4-(2-(2-((pyridin-2-ylmethyl)amino)ethoxy)ethoxy)phenyl)-4H-chromen-4-one]
[2]
  IC50: 25.3 ± 3.94 µM
[3]
  IC50: 23.9 ± 1.15 µM
[4]
  IC50: 28.4 µM
[7]
  IC50: 4.46 ± 0.68 µM
[9]
  IC50: 9.3 ± 0.56 µM

## O=C(COc1ccc(-c2cc(=O)c3ccccc3o2)cc1)N1CCCNCC1 [FM11, 2-(4-(2-(1,4-diazepan-1-yl)-2-oxoethoxy)phenyl)-4H-chromen-4-one]
[1]
  IC50: > 100 µM
[5]
  IC50: > 100 µM
[2]
  IC50: 66.9 ± 9.7 µM
[6]
  IC50: > 100 µM
[3]
  IC50: > 33 µM
[7]
  IC50: 7.1 ± 1.6 µM
[8]
  IC50: > 10 µM

## NC[C@@H]1O[C@H](O[C@H]2[C@@H](O)[C@H](O[C@@H]3[C@@H](O)[C@H](N)C[C@H](N)[C@H]3O[C@H]3O[C@H](CO)[C@@H](O)[C@H](O)[C@H]3N)O[C@@H]2CO)[C@H](N)[C@@H](O)[C@@H]1O [Paromomycin, reference compound]
[6]
  IC50: 24.5 ± 2.4 µM
[4]
  IC50: > 100 µM
[8]
  IC50: 41 ± 1.1 µM

## O=c1cc(-c2ccc(OCCOCCN(Cc3ncccc3Cl)Cc3ncccc3Cl)cc2)oc2ccccc12 [FM09g, 2-(4-(2-(2-(bis((3-chloropyridin-2-yl)methyl)amino)ethoxy)ethoxy)phenyl)-4H-chromen-4-one]
[1]
  IC50: 28.1 ± 5.24 µM
[2]
  IC50: 18.1 ± 4.88 µM
[3]
  IC50: 33.7 ± 10.6 µM
[7]
  IC50: > 10 µM
[9]
  IC50: > 10 µM

## NCCOCCOc1ccc(-c2cc(=O)c3ccccc3o2)cc1 [FM20, 2-(4-(2-(2-(amino)ethoxy)ethoxy)phenyl)-4H-chromen-4-one]
[1]
  IC50: 57.6 ± 37.3 µM
[5]
  IC50: 59.8 ± 6.9 µM
[6]
  IC50: 34.9 ± 14.1 µM
[3]
  IC50: 41.5 ± 15.6 µM
[4]
  IC50: 57.5 ± 9.2 µM
[8]
  Selective index (a)/(c): 22.6
  IC50: 0.7 ± 0.1 µM

## O=C(COc1ccc(-c2cc(=O)c3ccccc3o2)cc1)N1CCN(C(=O)c2ccncc2)CC1 [FM16, 2-(4-(2-(4-isonicotinoylpiperazin-1-yl)-2-oxoethoxy)phenyl)-4H-chromen-4-one]
[1]
  IC50: > 100 µM
[5]
  IC50: > 100 µM
[2]
  IC50: > 50 µM
[6]
  IC50: 87.1 ± 13 µM
[3]
  IC50: > 100 µM
[7]
  IC50: > 10 µM
[8]
  Selective index (a)/(c): >17.5
  IC50: 5.7 µM
[8]; listed as 16
  Selective index (a)/(c): > 17.5

## O=c1cc(-c2ccc(OCCOCCN(Cc3ncccn3)Cc3ncccn3)cc2)oc2ccccc12 [FM09d, 2-(4-(2-(2-(bis(pyrimidin-2-ylmethyl)amino)ethoxy)ethoxy)phenyl)-4H-chromen-4-one]
[1]
  IC50: 35.3 ± 4.2 µM
[2]
  IC50: 42.4 ± 7.65 µM
[3]
  IC50: > 100 µM
[4]
  IC50: > 100 µM
[7]
  IC50: > 10 µM
[9]
  IC50: > 10 µM

## O=C(COc1ccc(-c2cc(=O)c3ccccc3o2)cc1)N1CCN(Cc2ccncc2)CC1 [FM12, 2-(4-(2-oxo-2-(4-(pyridin-4-ylmethyl)piperazin-1-yl)ethoxy)phenyl)-4H-chromen-4-one]
[1]
  IC50: > 100 µM
[5]
  IC50: > 100 µM
[2]
  IC50: 25.4 ± 3.6 µM
[6]
  IC50: 15 ± 2.2 µM
[3]
  IC50: > 100 µM
[7]
  IC50: > 10 µM
[8]
  IC50: > 10 µM

## CC(C)(C)OO [tert-butyl hydroperoxide]
RAW264.7 cells; 10 μM, 2 hr
  RAW264.7 ROS Level, Relative fold (RF): 2.3 fold
RAW264.7 cells; 10 μM, 4 hr
  RAW264.7 ROS Level, Relative fold (RF): 2.3 fold
RAW264.7 cells; 10 μM, 6 hr
  RAW264.7 ROS Level, Relative fold (RF): 2.2 fold
RAW264.7 cells; 10 μM, 8 hr
  RAW264.7 ROS Level, Relative fold (RF): 1.9 fold
RAW264.7 cells; 10 μM, 20 hr
  RAW264.7 ROS Level, Relative fold (RF): 1.8 fold
RAW264.7 cells; 30 μM, 2 hr
  RAW264.7 ROS Level, Relative fold (RF): 2.9 fold
RAW264.7 cells; 30 μM, 4 hr
  RAW264.7 ROS Level, Relative fold (RF): 2.9 fold
RAW264.7 cells; 30 μM, 6 hr
  RAW264.7 ROS Level, Relative fold (RF): 2.6 fold
RAW264.7 cells; 30 μM, 20 hr
  RAW264.7 ROS Level, Relative fold (RF): 1.9 fold
RAW264.7 cells; 30 μM, 46 hr
  RAW264.7 ROS Level, Relative fold (RF): 1.6 fold
[10]; 2 hr
  L. amazon LV78 promastigote ROS Level, Relative fold (RF): 1.4 fold
[10]; 4 hr
  L. amazon LV78 promastigote ROS Level, Relative fold (RF): 1.3 fold
[10]; 6 hr
  L. amazon LV78 promastigote ROS Level, Relative fold (RF): 1.4 fold
[10]; 20 hr
  L. amazon LV78 promastigote ROS Level, Relative fold (RF): 1.7 fold
[10]; 46 hr
  L. amazon LV78 promastigote ROS Level, Relative fold (RF): 1.5 fold
[10]; 72 hr
  L. amazon LV78 promastigote ROS Level, Relative fold (RF): 1.9 fold

## O=c1cc(-c2ccc(OCCN3CCN(Cc4ccccn4)CC3)cc2)oc2ccccc12 [FM01a, 2-(4-(2-(4-(pyridin-2-ylmethyl)piperazin-1-yl)ethoxy)phenyl)-4H-chromen-4-one]
[1]
  IC50: 11.7 ± 1.34 µM
[2]
  IC50: 15.4 ± 5.98 µM
[3]
  IC50: 60.3 ± 2.3 µM
[7]
  IC50: 8.74 ± 0.77 µM
[9]
  IC50: 10 µM
